System: CGRP gene expression in PC-12 cells
Test: RT-qPCR of CGRP gene in PC-12 cells
Format: cell-based
Conditions: miconazole and electric current together (0.5 mA, 5 mins), 24 h
Method: PC-12 cells are cultures with 10% FBS and 1% Penicillin-Streptomycin supplemented with DMEM and incubated in a humidified incubator (37° C., 5% CO2). For the experiment, 5×10^4 cells per well are seeded on to 24 well plates and incubate for 24 hours to form a uniform monolayer. After that, miconazole nitrate ([…]) and electrical stimulation (0.5 mA, 5 mins) are given as treatment. Further, untreated cells are served as a control. After the treatment, medium is changed for electrical stimulation group and incubate for another 24 h. After that, total RNA is extracted from the treated cells using RNeasy Mini Kit (Qiagen, Hilden, Germany) and checked the purity using NanoDrop (Thermo Fisher Scientific, USA). Next, RNA is reversely transcribed into cDNA using the First Strand cDNA kit (Takara, DaLian, China). Real-time quantitative PCR reaction is performed with cDNA using TB green Premix. The mean cycle threshold (Ct) value of each target gene is normalized to the housekeeping genes (i.e., GAPDH).
It is hypothesized that the miconazole nitrate molecules released from the electroconductive MNs may also trigger the release of the calcitonin gene-related peptide (CGRP) from nociceptive neurons under electrical stimulation. […]

Clc1ccc(COC(Cn2ccnc2)c2ccc(Cl)cc2Cl)c(Cl)c1 (stereo not shown) [miconazole, miconazole nitrate]
increase in the expression of CGRP: ~3 fold

— patent US20250229068A1, “ELECTROCONDUCTIVE MICRONEEDLE FOR DRUG DELIVERY INTO DEEP TISSUE” (The University of Hong Kong, priority 2024, published 2025)
